{"source": "PubChem BioAssay AID1259408", "about": "(Genetic Toxicology Data Bank (GENE-TOX), 2018)", "tested_on": "GENE-TOX genotoxicity assays, various organisms and cells", "test": "GENE-TOX mutagenicity studies", "key": {"[1]": {"conditions": "Species/Cell Type: Saccharomyces cerevisiae, Assay Type: Mitotic recombination or gene conversion, Assay Code: YEH+, Evaluation Type: Evaluation A (Pre-1980)"}, "[2]": {"conditions": "Species/Cell Type: Salmonella typhimurium (one or more of the five standard strains: TA98, TA100, TA1535, TA1537, and TA1538), Assay Type: Histidine reverse gene mutation, Ames assay, Assay Code: SALT, Evaluation Type: Evaluation A (Pre-1980)"}, "[3]": {"conditions": "Species/Cell Type: Human, Assay Type: Sister-chromatid exchange (SCE) in vitro, Assay Code: SC1+D, Dose Response: With dose response, Evaluation Type: Evaluation B (Post-1980)"}}, "note": "Activity calls are given as the source filed them. No rule for the calls is given here.", "data": [{"smiles": "CCOP(=S)(OCC)SCSc1ccc(Cl)cc1", "values": [{"measurement": "mutagenic call", "setting": "Species/Cell Type: Human, Assay Type: Sister-chromatid exchange (SCE) in vitro, Assay Code: SC1+, Evaluation Type: Evaluation B (Post-1980)", "result": "active; positive"}]}, {"smiles": "O=c1ccc2ccccc2[nH]1", "values": [{"measurement": "mutagenic call", "setting": "Species/Cell Type: Salmonella typhimurium (one or more of the five standard strains: TA98, TA100, TA1535, TA1537, and TA1538), Assay Type: Histidine reverse gene mutation, Ames assay, Assay Code: SAL-, Evaluation Type: Evaluation A (Pre-1980)", "result": "inactive; negative"}]}, {"smiles": "Cc1c2ccccc2c(C)c2c1cc(F)c1ccccc12", "values": [{"measurement": "mutagenic call", "setting": "Species/Cell Type: Chinese hamster lung (V79) cells, Assay Type: Forward gene mutation at the HPRT or ouabain locus, Assay Code: V79-*, Activation: With metabolic activation, Evaluation Type: Evaluation A (Pre-1980)", "result": "inactive; negative"}]}, {"smiles": "ClC(Cl)=C(Cl)Cl", "values": [{"measurement": "mutagenic call", "setting": "Species/Cell Type: Fischer rat embryo (RLV/1706) cells, Assay Type: Cell transformation, viral enhanced, Assay Code: CTR+, Evaluation Type: Evaluation A (Pre-1980)", "result": "active; positive"}, {"measurement": "call", "setting": "Species/Cell Type: Nonhuman, Assay Type: In vivo carcinogenicity studies, Assay Code: CCG+L, Evaluation Type: Evaluation A (Pre-1980)", "result": "active; positive"}, {"measurement": "mutagenic call", "setting": "Species/Cell Type: Saccharomyces cerevisiae, Assay Type: Mitotic recombination or gene conversion, Assay Code: YEC+, Evaluation Type: Evaluation A (Pre-1980)", "result": "active; positive"}, {"measurement": "mutagenic call", "setting": "[1]", "result": "active; positive"}, {"measurement": "mutagenic call", "setting": "Species/Cell Type: Saccharomyces cerevisiae, Assay Type: Reverse gene mutation, Assay Code: YER+, Evaluation Type: Evaluation A (Pre-1980)", "result": "active; positive"}, {"measurement": "mutagenic call", "setting": "Species/Cell Type: Syrian hamster embryo (SA7/SHE) cells, Assay Type: Cell transformation, viral enhanced, Assay Code: CT7-, Evaluation Type: Evaluation A (Pre-1980)", "result": "inactive; negative"}]}, {"smiles": "Nc1cccc(N)c1", "values": [{"measurement": "mutagenic call", "setting": "Species/Cell Type: Allium cepa, Assay Type: Chromosome aberrations, Assay Code: ALC+, Evaluation Type: Evaluation A (Pre-1980)", "result": "active; positive"}, {"measurement": "mutagenic call", "setting": "Species/Cell Type: Rodents, Sex: Male, Assay Type: Dominant lethal test, Assay Code: DLTT, Evaluation Type: Evaluation A (Pre-1980)", "result": "no conclusion"}, {"measurement": "mutagenic call", "setting": "Species/Cell Type: Salmonella typhimurium (one or more of the five standard strains: TA98, TA100, TA1535, TA1537, and TA1538), Assay Type: Histidine reverse gene mutation, Ames assay, Assay Code: SAL+*, Activation: With metabolic activation, Evaluation Type: Evaluation A (Pre-1980)", "result": "active; positive"}, {"measurement": "mutagenic call", "setting": "Species/Cell Type: Syrian hamster embryo (SHE) cells, Assay Type: Cell transformation, clonal assay, Assay Code: CTC+, Evaluation Type: Evaluation A (Pre-1980)", "result": "active; positive"}]}, {"smiles": "COc1ccc(C(=C(c2ccc(OC)cc2)c2ccc(OC)cc2)c2ccc(OC)cc2)cc1", "values": [{"measurement": "mutagenic call", "setting": "[2]", "result": "no conclusion"}]}, {"smiles": "CC[C@@]1(O)C[C@H](O[C@H]2C[C@H](N(C)C)[C@H](O)[C@H](C)O2)c2c(cc3c(c2O)C(=O)c2c(O)cccc2C3=O)[C@H]1C(=O)OC", "values": [{"measurement": "mutagenic call", "setting": "[2]", "result": "no conclusion"}]}, {"smiles": "Nc1ccc([N+](=O)[O-])cc1O", "values": [{"measurement": "mutagenic call", "setting": "Species/Cell Type: Neurospora crassa, Assay Type: Aneuploidy, chromosome aberrations, Assay Code: NEN-, Evaluation Type: Evaluation A (Pre-1980)", "result": "inactive; negative"}, {"measurement": "mutagenic call", "setting": "Species/Cell Type: Rodents, Sex: Male, Assay Type: Dominant lethal test, Assay Code: DLT-, Evaluation Type: Evaluation A (Pre-1980)", "result": "inactive; negative"}, {"measurement": "mutagenic call", "setting": "Species/Cell Type: Salmonella typhimurium (one or more of the five standard strains: TA98, TA100, TA1535, TA1537, and TA1538), Assay Type: Histidine reverse gene mutation, Ames assay, Assay Code: SAL+, Evaluation Type: Evaluation A (Pre-1980)", "result": "active; positive"}]}, {"smiles": "Cn1cccc1CO", "values": [{"measurement": "mutagenic call", "setting": "Species/Cell Type: Human lymphocytes, Assay Type: Sister-chromatid exchange (SCE) in vitro, Assay Code: SCL+D, Dose Response: With dose response, Evaluation Type: Evaluation B (Post-1980)", "result": "active; positive"}, {"measurement": "mutagenic call", "setting": "[3]", "result": "active; positive"}]}, {"smiles": "CNC(=O)/C=C(\\C)OP(=O)(OC)OC", "values": [{"measurement": "mutagenic call", "setting": "Species/Cell Type: Bacillus subtilis (H17 vs M45), Assay Type: Rec-assay, spot test, DNA effects (bacterial DNA repair), Assay Code: REWT, Evaluation Type: Evaluation A (Pre-1980)", "result": "no conclusion"}, {"measurement": "mutagenic call", "setting": "Species/Cell Type: Drosophila melanogaster, Assay Type: Sex-linked recessive lethal gene mutation, Assay Code: SRL-, Evaluation Type: Evaluation A (Pre-1980)", "result": "inactive; negative"}, {"measurement": "mutagenic call", "setting": "Species/Cell Type: Escherichia coli WP2 UVRA, Assay Type: Tryptophan reverse gene mutation, Assay Code: WPU-*, Activation: With metabolic activation, Evaluation Type: Evaluation A (Pre-1980)", "result": "inactive; negative"}, {"measurement": "mutagenic call", "setting": "Species/Cell Type: Escherichia coli polA (W3119 vs P3478), Assay Type: Rec-assay, DNA effects (bacterial DNA repair), Assay Code: RE1T, Evaluation Type: Evaluation A (Pre-1980)", "result": "no conclusion"}, {"measurement": "mutagenic call", "setting": "Species/Cell Type: Human diploid fibroblasts, Assay Type: Unscheduled DNA synthesis (UDS) in vitro, DNA effects, Assay Code: UDH+, Evaluation Type: Evaluation A (Pre-1980)", "result": "active; positive"}, {"measurement": "mutagenic call", "setting": "[3]", "result": "active; positive"}, {"measurement": "mutagenic call", "setting": "Species/Cell Type: Mammalian polychromatic erythrocytes, Assay Type: Micronucleus test, chromosome aberrations, Assay Code: MNT+, Evaluation Type: Evaluation B (Post-1980)", "result": "active; positive"}, {"measurement": "mutagenic call", "setting": "[1]", "result": "active; positive"}, {"measurement": "mutagenic call", "setting": "[2]", "result": "no conclusion"}]}]}
